One may read the kinact as the rate constant of inactivation at saturating inhibitor. One may read the Km as the concentration of substrate that gives half-maximal velocity.

Entries after “also recorded” stand apart in the source; their conditions may differ.

Common to all, as to experiment: Kinetic analysis of interaction (turnover and inactivation) with porcine renal dipeptidase (dehydropeptidase I)
What all share (assay type): biochemical

Data set [1] deals with T1, porcine dehydropeptidase I (Sus scrofa, UniProt P22412).
T1 construct: Renal dipeptidase from porcine kidney was purified by a slight modification of the literature report; from tissue; host or cells: porcine kidney
T1 sequence (P22412 17-409): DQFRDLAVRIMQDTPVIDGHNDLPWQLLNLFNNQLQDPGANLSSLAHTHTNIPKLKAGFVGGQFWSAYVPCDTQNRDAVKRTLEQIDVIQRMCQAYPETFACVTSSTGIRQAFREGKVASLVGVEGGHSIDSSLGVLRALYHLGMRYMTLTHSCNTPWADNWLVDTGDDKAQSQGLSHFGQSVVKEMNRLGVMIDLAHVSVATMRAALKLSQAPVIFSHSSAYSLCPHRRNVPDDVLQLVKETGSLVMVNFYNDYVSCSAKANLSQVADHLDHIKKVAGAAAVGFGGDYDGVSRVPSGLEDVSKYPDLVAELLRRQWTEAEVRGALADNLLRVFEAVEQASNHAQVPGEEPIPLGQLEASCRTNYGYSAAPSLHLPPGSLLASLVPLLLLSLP
Conditions: for kinact: read-out: kinact (first-order rate constant for inactivation) (converted); for Ki: renal dipeptidase assay with glycinyldehydrophenylalanine as substrate, read-out: Ki (reversible inhibitor constant for the formation of the EI complex). From the text: (§1) Km is the Michaelis […] for the turnover, and Ki is the reversible inhibitor constant for the formation of the EI complex. The parameters Kcat and Kinact are first-order rate constant for enzymic turnover and inactivation, respectively. The partition ratio is defined as kcat divided by kinact (i.e., kcat/ kinact).
(§2) Renal dipeptidase from porcine kidney was purified by a slight modification of the literature report (Biochem. J. 257, 361 (1989)). The spectrophotometric assay of renal dipeptidase is carried out according to the method of Campbell et al. (Methods Enzymol. 19, 722 (1970)), using glycinyldehydrophenylalanine as substrate. The substrate was synthesized according to the literature report (Synthesis Commun., 234 (1982)).
(§3) The relevant kinetic parameters for interactions of I and III with porcine dehydropeptidase I are given below.

Substrate in data set [2]: C=C(NC(=O)CC#N)C(=O)O
Conditions: other: turnover of compound by porcine dehydropeptidase I.
Text: as §1, §2, §3

Substrate in data set [3]: C=C(CC(=O)CC#N)C(=O)O
Conditions: other: turnover of compound by porcine dehydropeptidase I.
Text: as §1, §2, §3

For `C=C(CC(=O)CC#N)C(=O)O` [I, 2-Methnylene-5-Cyano-4-Oxopentanoic Acid], the “inactivation of dehydropeptidase, overall result in words” value in data set [1] (conclusion from the kinetic table) was “very effective inactivators; also recorded: somewhat better than the ketonic compound (I)”. Moreover, in data set [1] (porcine dehydropeptidase I, kcat divided by kinact), the “kcat/kinact (partition ratio)” value was 217 ± 37. In data set [1] (porcine dehydropeptidase I), the maximal inactivation rate constant (kinact) was 0.00252 s⁻¹ and the Ki was determined as 38 ± 1 µM.

For the molecule `C=C(NC(=O)CC#N)C(=O)O` [III, 2-Cyanoacetamidoacrylic Acid], in data set [1] (porcine dehydropeptidase I), the kinact was 0.00462 s⁻¹ and the Ki stood at 18 ± 6 µM.

B1: porcine dehydropeptidase I (Sus scrofa) (protein)
chain: T1 sequence (P22412 17-409)
notes: Renal dipeptidase from porcine kidney was purified by a slight modification of the literature report; from tissue; host or cells: porcine kidney
In the case of B1, the Km in data set [2] came to 0.416 mM; in data set [3], 10.3 mM.

Source of the values: US5238930A, “Alkenoic acid compounds for mechanism-based inactivation of dehydropeptidase activity” (Board of Governors of Wayne State University, priority 1992, dated 1993).
